The source of these data is patent US20230391817A1, “5ALPHA-HYDROXY-6BETA-[2-(1-H-IMIDAZOL-4-YL)-ETHYLAMINO]-CHOLESTAN-3BETA-OL ANALOGUES AND PHARMACEUTICAL COMPOSITIONS COMPRISING SAME FOR USE IN THE TREATMENT OF CANCER” (priority 2020, published 2023).

Data set [1] is described as follows: Oral pharmacokinetic study in rat, LC/MS assay in plasma (Examples 21-24). It counts as in vivo. The following applies: in vivo, po, 50 mg/kg. As to the method:
The following study is an LC/MS assay in plasma of the various molecules over 3 days (11 measurement points in the end). The graphs are always presented in comparison with DX101 which is the reference.
Plasma sampling at 0 (without injection), 5, 10, 15, 30 min, 1 h, 4 h, 8 h, 24 h, 48 h, 72 h (11 points)

Data set [2] concerns murine 4T1 mammary tumor cells. Kind of data set: Cell viability of 4T1 cells, MTT. It counts as cell-based. As to conditions: for cytotoxic activity compared with DX101: 4T1, Tables 1a, 1b and 1c (MTT, LDH, Green Cytotoxicity Assay); for IC50: Mus musculus, 4T1, MTT, 48 h. The protocol: (§1) Cell viability tests were performed on murine 4T1 mammary tumor cells characterized as triple negative (HER2-, ER-, PR-).
(§2) For this experiment, a cell culture medium was prepared. The culture medium consisted of Dulbecco's Modified Eagle Medium (DMEM, sold by Westburg as LO BE12-604F), comprising 4.5 g/L glucose with L-glutamine, to which 10% fetal calf serum (FCS) and 50 U/ml penicillin/streptomycin are added. The 4T1 cells were introduced into this culture medium.
(§3) 96-well plates were seeded with 2000 4T1 cells per well. After 72 hours (h) of culture under normal condition, i.e. in an incubator at 37° C. at […], the 4T1 cells were treated for 48 h with DX101, DX103, DX111, DX123, DX125, DX127 and DX129 at 100 nM, 1 μM, 2.5 μM and 10 μM. A control condition (CTL) is also performed in parallel using the previously described protocol without treatment with the molecules DX101, DX103, DX111, DX123, DX125, DX127 or DX129.
(§4) The cell viability is measured by three different methods. For the first method, MTT labeling is performed at 48 hours. This test is based on the use of the tetrazolium salt MTT (3-(4,5-dimethylthiazol-2-yl)-2,5-diphenyltetrazolium bromide). Tetrazolium is reduced by mitochondrial succinate dehydrogenase in active live cells to formazan, a purple colored precipitate. The amount of precipitate formed is proportional to the amount of live cells but also to the metabolic activity of each cell. Thus, a simple determination of the optical density at 550 nm by spectroscopy makes it possible to determine the relative amount of live and metabolically active cells. After 48 hours, the medium is aspirated, and the cells are incubated with MTT (0.5 mg/ml in culture medium) for about 3 hours. The MTT solution is aspirated and the purple crystals are dissolved in dimethyl sulfoxide (DMSO). The OD (optical density) is measured at 550 nm. The percentage of viability is then determined in each well against the CTL and the IC50 (concentration at which 50% of cells remain alive) is determined for each molecule with the Prism software using a nonlinear regression curve (log(inhibitor) vs. Response).

Data set [3] deals with murine 4T1 mammary tumor cells. The experiment in a line: Cell viability of 4T1 cells, LDH. It counts as cell-based. As to conditions: Mus musculus, 4T1, LDH, 48 h. The protocol:
as §1, §2, §3
For the second method, the percentage of viability is determined by assaying the activity of the enzyme LDH (lactate dehydrogenase) in cell supernatants using the non radioactive cytotoxicity assay kit (Promega). LDH is an enzyme released in the supernatant of dead cells. The higher the LDH activity in the supernatant, the greater the cell death. In this enzyme assay, the LDH released converts a violet tetrazolium salt to a red colored formazan, absorbing at 490 nm. The intensity of the red color is proportional to the number of dead cells. After 48 h of treatment, the supernatants are transferred to a new 96-well plate and incubated for 30 minutes in the presence of substrate mix at room temperature. The reaction is stopped with stop solution reagent and the absorbance is determined at 490 nm. The percentage of cell death is determined here using a 100% maximum LDH activity control (made from untreated cells incubated in the presence of lysis solution for 45 minutes at 37° C. just prior to addition of the substrate mix), and the cell viability in each well is then deduced from this percentage. The IC50 is then determined as explained in the preceding paragraph.

In data set [4] the test system is murine 4T1 mammary tumor cells. Kind of data set: Cell viability of 4T1 cells, CellTox Green Cytotoxicity Assay. It counts as cell-based. The following applies: Mus musculus, 4T1, Green Cytotoxicity Assay, 48 h. As to the method: as §1, §2, §3
For the third method, the percentage viability is determined using the CellTox Green Cytotoxicity Assay kit (Promega). This assay measures cell death via a change in membrane integrity. […] Consequently, the higher the fluorescence in the wells, the greater the cell death. […] The percentage of cell death is determined using the 100% cell death control (made from untreated cells incubated in the presence of the lysis solution for 30 minutes at 37° C. prior to the addition of Celltox green reagent), and the cell viability in each well is then deduced from this percentage. The IC50 is then determined as explained previously.

Data set [5] relates to BT-474 human mammary tumor cells. Kind of data set: Cell viability of BT-474 cells, MTT. The following applies: for activity compared with DX101: BT-474, Tables 2a, 2b and 2c (MTT, LDH, Trypan Blue); for Mean LogIC50 (±SEM) / IC50: BT-474, MTT, 48 h; for Mean LogIC50 (±SEM): log of IC50 in μM; for IC50: Homo sapiens. It counts as cell-based. As to the method:
as §4
(§5) Cell viability tests were also performed on BT-474 human mammary tumor cells (characterized as triple positive HER2+, ER+, PR+). The BT-474 cells were in a cell culture medium identical to the previous example and seeded in 24-well plates at 70 000 cells per well for cell viability determination using trypan blue, or in 96-well plates at 13 000 cells per well for cell viability determination using the MTT or LDH assay. After 96 hours (h) of culture under normal conditions, i.e. in an incubator at 37° C. with […], BT-474 cells were treated for 48 h with DX101, DX103, DX105, DX111, DX123 and DX127 at 100 nM, 1 μM, 2.5 μM and 10 μM. A control is also performed using the protocol described previously without treatment with DX101, DX103, DX105, DX111, DX123 and DX127.
(§6) After a 10-minute trypsin digestion at 37° C., the cell survival was also quantified by means of a trypan blue test with automatic counting using the Biorad TC20 machine (TC20™ Automated Cell Counter). The trypan blue test is based on the integrity of cell membranes, which is disrupted in the dead cells. Trypan blue stains dead cells blue. The Biorad TC20 cell counter counts the proportion of blue and non-blue cells, and reports the percentage of cells. The percentage of viability is then determined in each well relative to the untreated cells and the IC50 is determined as explained in the preceding example. Also, the percentage viability of the BT-474 cells was determined using the MTT and LDH assay, performed as described in the preceding example.

Data set [6] has the same test system. Kind of data set: Cell viability of BT-474 cells, trypan blue. It counts as cell-based. The following applies: BT-474, Trypan Blue, 48 h; for Mean LogIC50 (±SEM): log of IC50 in μM; for IC50: Homo sapiens. As to the method: as §5, §6
Where [7] appears, read: log of IC50 in μM, read-out: Mean LogIC50 (±SEM) (converted).

SMILES strings stand for the structures.

Take `CC(C)CCC[C@@H](C)[C@H]1CC[C@H]2[C@@H]3C[C@@H](NCCc4c[nH]cn4)[C@@]4(O)C[C@@H](N=[N+]=[N-])CC[C@]4(C)[C@H]3CC[C@]12C` [DX123, 3β-azido-5α-hydroxy-6β-[2-(1H-imidazol-4-yl)ethylamino]cholestane]: in data set [1], the “Area under the curve” value turned out to be 6711. The same compound returned a Max concentration in data set [1] of 721 nM. Besides, in data set [1], the “Time for Cmax” value is recorded as 4 min. In addition, the “bioavailability / extent of absorption compared with DX101” value in data set [1] is on record as “twofold higher bioavailability”. For the same compound, in data set [2], the “cytotoxic activity compared with DX101” value is listed as “tendency to be higher”. Moreover, the IC50 was 5.89 µM in data set [2] (setting [7]); 5.94 µM in data set [2] (read-out: IC50); 1.45 µM in data set [3] (setting [7]); 1.45 µM in data set [3] (read-out: IC50); 2.09 µM in data set [4] (setting [7]); over 10 µM in data set [4] (read-out: IC50). Moreover, in data set [5], the “activity compared with DX101” value is “tends to be superior”.
Take `CC(C)CCC[C@@H](C)[C@H]1CC[C@H]2[C@@H]3C[C@@H](NCCc4c[nH]cn4)[C@@]4(O)C[C@@H](N)CC[C@]4(C)[C@H]3CC[C@]12C` [DX125, 3β-amino-5α-hydroxy-6β-[2-(1H-imidazol-4-yl)ethylamino]cholestane]: the “cytotoxic activity compared with DX101” value in data set [2] was “lower”. Also, the IC50 in data set [2] (setting [7]) is 145 µM; in data set [2] (read-out: IC50), over 10 µM; in data set [3] (setting [7]), 36.3 µM; in data set [3] (read-out: IC50) it was over 10 µM; in data set [4] (setting [7]), 22.4 µM; in data set [4] (read-out: IC50) it was over 10 µM.
Turning to `CCCCCCCCO[C@H]1CC[C@]2(C)[C@H]3CC[C@]4(C)[C@@H]([C@H](C)CCCC(C)C)CC[C@H]4[C@@H]3C[C@@H](NCCc3c[nH]cn3)[C@@]2(O)C1` [DX115, 3β-octanoxy-5α-hydroxy-6β-[2-(1H-imidazol-4-yl)ethylamino]cholestane], the IC50 in data set [2] (setting [7]) is 37.2 µM; in data set [2] (read-out: IC50), over 10 µM; in data set [3] (setting [7]), 17.4 µM; in data set [3] (read-out: IC50), over 10 µM; in data set [4] (setting [7]), 25.1 µM; in data set [4] (read-out: IC50) it was over 10 µM.
Turning to `CC(C)CCC[C@@H](C)[C@H]1CC[C@H]2[C@@H]3C[C@@H](NCCc4c[nH]cn4)[C@@]4(O)C[C@@H](S(C)(=O)=O)CC[C@]4(C)[C@H]3CC[C@]12C` [DX129, 3β-methylsulfonyl-5α-hydroxy-6β-[2-(1H-imidazol-4-yl)ethylamino]cholestane], the “cytotoxic activity compared with DX101” value in data set [2] is reported as “lower”. The IC50 in data set [2] (setting [7]) is 15.1 µM; in data set [2] (read-out: IC50) it was 15.1 µM; in data set [3] (setting [7]), 3.89 µM; in data set [3] (read-out: IC50), 3.87 µM; in data set [4] (setting [7]), 16.2 µM; in data set [4] (read-out: IC50) it was 16.2 µM.
Turning to `CCO[C@H]1CC[C@]2(C)[C@H]3CC[C@]4(C)[C@@H]([C@H](C)CCCC(C)C)CC[C@H]4[C@@H]3C[C@@H](NCCc3c[nH]cn3)[C@@]2(O)C1` [DX105, 3β-ethoxy-5α-hydroxy-6β-[2-(1H-imidazol-4-yl)ethylamino]cholestane], in data set [1], the “Area under the curve” value is listed as 145590, the Max concentration was determined as 197 nM, the “Time for Cmax” value was 240 min and the “bioavailability / extent of absorption compared with DX101” value is on record as “equivalent to (or even slightly higher than)”. Further, in data set [1], the “maximum concentration compared with DX101” value is reported as “much higher maximum concentration” and the “speed of absorption compared with DX101” value is given as “much faster absorption”. Besides, in data set [5], the “Mean LogIC50 (±SEM)” value is on record as 0.86 ± 0.04, the “activity compared with DX101” value was “similar” and the IC50 was determined as 4.08 µM. Moreover, in data set [6], the “Mean LogIC50 (±SEM)” value turned out to be 0.55 ± 0.14 and the IC50 amounted to 3.57 µM.
For the compound `CC(=O)N[C@H]1CC[C@]2(C)[C@H]3CC[C@]4(C)[C@@H]([C@H](C)CCCC(C)C)CC[C@H]4[C@@H]3C[C@@H](NCCc3c[nH]cn3)[C@@]2(O)C1` [DX127, 3β-acetamido-5α-hydroxy-6β-[2-(1H-imidazol-4-yl)ethylamino]cholestane], the “cytotoxic activity compared with DX101” value in data set [2] was “lower”. Also, the IC50 in data set [2] (setting [7]) was 11.7 µM; in data set [2] (read-out: IC50), 11.7 µM; in data set [3] (setting [7]), 7.08 µM; in data set [3] (read-out: IC50), 7.09 µM; in data set [4] (setting [7]) it was 11 µM; in data set [4] (read-out: IC50), 10.9 µM. The “activity compared with DX101” value in data set [5] is recorded as “similar”.
For `CO[C@H]1CC[C@]2(C)[C@H]3CC[C@]4(C)[C@@H]([C@H](C)CCCC(C)C)CC[C@H]4[C@@H]3C[C@@H](NCCc3c[nH]cn3)[C@@]2(O)C1` [DX103, 3β-methoxy-5α-hydroxy-6β-[2-(1H-imidazol-4-yl)ethylamino]cholestane], the “Area under the curve” value in data set [1] was 105351. In addition, in data set [1], the Max concentration is 135 nM. The “Time for Cmax” value in data set [1] was 240 min. Moreover, the “bioavailability / extent of absorption compared with DX101” value in data set [1] is on record as “slightly lower bioavailability”. The “speed of absorption compared with DX101” value in data set [1] was “faster absorption”. For the same compound, the IC50 in data set [2] (setting [7]) was 3.16 µM; in data set [2] (read-out: IC50) it was 3.16 µM; in data set [3] (setting [7]) it was 4.37 µM; in data set [3] (read-out: IC50), 4.4 µM; in data set [4] (setting [7]), 2.63 µM; in data set [4] (read-out: IC50) it was 2.63 µM. In addition, the IC50 in data set [5] came out at 7.08 µM; in data set [6], 2.62 µM. Besides, the “Mean LogIC50 (±SEM)” value in data set [5] came to 0.85 ± 0.05; in data set [6] it was 0.42 ± 0.25. In addition, in data set [5], the “activity compared with DX101” value is “similar”.
